# Experimental data: ChEMBL document CHEMBL4411307, “N,N'-diaryl-bishydrazones in a biphenyl platform: Broad spectrum antifungal agents” (Eur J Med Chem, 2019)
# The source made the active and inactive calls. No cut-off for these calls is given here.
# What was measured:
# Listeria monocytogenes = experiment: Antibacterial activity against Listeria monocytogenes; format: functional, organism-based
# Staphylococcus aureus = experiment: Antibacterial activity against methicillin-resistant Staphylococcus aureus; format: functional, organism-based
# Enterococcus = experiment: Antibacterial activity against vancomycin-resistant Enterococcus; format: functional, organism-based
# Candida albicans [1] = experiment: Antifungal activity against fluconazole/ITC-resistant Candida albicans ATCC 10231 measured after 48 hrs by CLSI M27-A3 protocol based method; format: functional; conditions: ATCC 10231, 48 h
# Candida albicans [2] = experiment: Antifungal activity against fluconazole/ITC-resistant Candida albicans ATCC 64124 measured after 48 hrs by CLSI M27-A3 protocol based method; format: functional; conditions: ATCC 64124, 48 h
# Candida albicans [3] = experiment: Antifungal activity against fluconazole/ITC-susceptible Candida albicans ATCC MYA-2876 measured after 48 hrs by CLSI M27-A3 protocol based method; format: functional; conditions: ATCC MYA-2876, 48 h
# Candida albicans [4] = experiment: Antifungal activity against fluconazole/ITC-resistant Candida albicans ATCC 90819 measured after 48 hrs by CLSI M27-A3 protocol based method; format: functional; conditions: ATCC 90819, 48 h
# Candida albicans [5] = experiment: Antifungal activity against fluconazole/ITC-susceptible Candida albicans ATCC MYA-2310 measured after 48 hrs by CLSI M27-A3 protocol based method; format: functional; conditions: ATCC MYA-2310, 48 h
# Candida albicans [6] = experiment: Antifungal activity against fluconazole/ITC-resistant Candida albicans ATCC MYA-1237 measured after 48 hrs by CLSI M27-A3 protocol based method; format: functional; conditions: ATCC MYA-1237, 48 h
# Candida albicans [7] = experiment: Antifungal activity against fluconazole/ITC-resistant Candida albicans ATCC MYA-1003 measured after 48 hrs by CLSI M27-A3 protocol based method; format: functional; conditions: ATCC MYA-1003, 48 h
# Nakaseomyces glabratus = experiment: Antifungal activity against Candida glabrata ATCC 2001 measured after 48 hrs by CLSI M27-A3 protocol based method; format: functional; conditions: CBS 138, 48 h
# Pichia kudriavzevii = experiment: Antifungal activity against Candida krusei ATCC 6258 measured after 48 hrs by CLSI M27-A3 protocol based method; format: functional; conditions: ATCC 6258, 48 h
# Candida parapsilosis = experiment: Antifungal activity against Candida parapsilosis ATCC 22019 measured after 48 hrs by CLSI M27-A3 protocol based method; format: functional; conditions: Lodderomyces parapsilosis, ATCC 22019, 48 h
# Aspergillus flavus = experiment: Antifungal activity against Aspergillus flavus ATCC MYA-3631 measured after 48 hrs by CLSI M38-A2 protocol based method; format: functional; conditions: ATCC MYA-3631, 48 h
# Aspergillus nidulans = experiment: Antifungal activity against Aspergillus nidulans ATCC 38163 measured after 48 hrs by CLSI M38-A2 protocol based method; format: functional; conditions: ATCC 38163, 48 h
# Aspergillus terreus = experiment: Antifungal activity against Aspergillus terreus ATCC MYA-3633 measured after 48 hrs by CLSI M38-A2 protocol based method; format: functional; conditions: ATCC MYA-3633, 48 h
# A549 = experiment: Cytotoxicity against human A549 cells after 24 hrs by resazurin based assay; format: cell-based; conditions: a549, 24 h
# BEAS-2B = experiment: Cytotoxicity against human BEAS2B cells after 24 hrs by resazurin based assay; format: cell-based
# [8] = Selectivity index, ratio of CC50 for human A549 cells to MIC for fluconazole/ITC-resistant Candida albicans ATCC 10231; format: toxicity; conditions: read-out: Selectivity Index
# [9] = Selectivity index, ratio of CC50 for human A549 cells to MIC for fluconazole/ITC-resistant Candida albicans ATCC 64124; format: toxicity; conditions: read-out: Selectivity Index
# [10] = Selectivity index, ratio of CC50 for human A549 cells to MIC for fluconazole/ITC-susceptible Candida albicans ATCC MYA-2876; format: toxicity; conditions: read-out: Selectivity Index
# [11] = Selectivity index, ratio of CC50 for human A549 cells to MIC for fluconazole/ITC-resistant Candida albicans ATCC 90819; format: toxicity; conditions: read-out: Selectivity Index
# [12] = Selectivity index, ratio of CC50 for human A549 cells to MIC for fluconazole/ITC-susceptible Candida albicans ATCC MYA-2310; format: toxicity; conditions: read-out: Selectivity Index
# [13] = Selectivity index, ratio of CC50 for human A549 cells to MIC for fluconazole/ITC-resistant Candida albicans ATCC MYA-1237; format: toxicity; conditions: read-out: Selectivity Index
# [14] = Selectivity index, ratio of CC50 for human A549 cells to MIC for fluconazole/ITC-resistant Candida albicans ATCC MYA-1003; format: toxicity; conditions: read-out: Selectivity Index
# [15] = Selectivity index, ratio of CC50 for human A549 cells to MIC for Candida glabrata ATCC 2001; format: toxicity; conditions: read-out: Selectivity Index
# [16] = Selectivity index, ratio of CC50 for human A549 cells to MIC for Candida krusei ATCC 6258; format: toxicity; conditions: read-out: Selectivity Index
# [17] = Selectivity index, ratio of CC50 for human A549 cells to MIC for Candida parapsilosis ATCC 22019; format: toxicity; conditions: read-out: Selectivity Index
# [18] = Selectivity index, ratio of CC50 for human A549 cells to MIC for Aspergillus flavus ATCC MYA-3631; format: toxicity; conditions: read-out: Selectivity Index
# [19] = Selectivity index, ratio of CC50 for human A549 cells to MIC for Aspergillus nidulans ATCC 38163; format: toxicity; conditions: read-out: Selectivity Index
# [20] = Selectivity index, ratio of CC50 for human A549 cells to MIC for Aspergillus terreus ATCC MYA-3633; format: toxicity; conditions: read-out: Selectivity Index
# [21] = Hemolytic activity in mouse RBC at […] after 1 hr relative to control; format: ADME, cell-based, Erythrocyte; conditions: red blood cells (erythrocytes), read-out: Activity; note: tested at 0.48 µg/mL
# [22] = Hemolytic activity in mouse RBC at […] ug/ml after 1 hr relative to control; format: ADME, cell-based, Erythrocyte; conditions: red blood cells (erythrocytes), read-out: Activity
# [23] = Hemolytic activity in mouse RBC at 1.95 ug/ml after 1 hr relative to control; format: ADME, cell-based, Erythrocyte; conditions: red blood cells (erythrocytes), read-out: Activity
# [24] = Hemolytic activity in mouse RBC at 3.9 ug/ml after 1 hr relative to control; format: ADME, cell-based, Erythrocyte; conditions: red blood cells (erythrocytes), read-out: Activity
# [25] = Hemolytic activity in mouse RBC at 7.8 ug/ml after 1 hr relative to control; format: ADME, cell-based, Erythrocyte; conditions: red blood cells (erythrocytes), read-out: Activity
# [26] = Hemolytic activity in mouse RBC at 31.3 ug/ml after 1 hr relative to control; format: ADME, cell-based, Erythrocyte; conditions: red blood cells (erythrocytes), read-out: Activity
# [27] = Hemolytic activity in mouse RBC at 62.5 ug/ml after 1 hr relative to control; format: ADME, cell-based, Erythrocyte; conditions: red blood cells (erythrocytes), read-out: Activity
# [28] = Selectivity index, ratio of compound concentration showing <20 to <30% hemolysis in mouse RBC to MIC for fluconazole/ITC-resistant Candida albicans ATCC 10231; format: toxicity; conditions: red blood cells (erythrocytes), read-out: Selectivity Index
# [29] = Selectivity index, ratio of compound concentration showing <20 to <30% hemolysis in mouse RBC to MIC for fluconazole/ITC-resistant Candida albicans ATCC 64124; format: toxicity; conditions: red blood cells (erythrocytes), read-out: Selectivity Index
# [30] = Selectivity index, ratio of compound concentration showing <20 to <30% hemolysis in mouse RBC to MIC for fluconazole/ITC-susceptible Candida albicans ATCC MYA-2876; format: toxicity; conditions: red blood cells (erythrocytes), read-out: Selectivity Index
# [31] = Selectivity index, ratio of compound concentration showing <20 to <30% hemolysis in mouse RBC to MIC for fluconazole/ITC-resistant Candida albicans ATCC 90819; format: toxicity; conditions: red blood cells (erythrocytes), read-out: Selectivity Index
# [32] = Selectivity index, ratio of compound concentration showing <20 to <30% hemolysis in mouse RBC to MIC for fluconazole/ITC-susceptible Candida albicans ATCC MYA-2310; format: toxicity; conditions: mouse red blood cells (RBC), read-out: Selectivity Index
# [33] = Selectivity index, ratio of compound concentration showing <20 to <30% hemolysis in mouse RBC to MIC for fluconazole/ITC-resistant Candida albicans ATCC MYA-1237; format: toxicity; conditions: mouse red blood cells (RBC), read-out: Selectivity Index
# [34] = Selectivity index, ratio of compound concentration showing <20 to <30% hemolysis in mouse RBC to MIC for fluconazole/ITC-resistant Candida albicans ATCC MYA-1003; format: toxicity; conditions: mouse red blood cells (RBC), read-out: Selectivity Index
# [35] = Selectivity index, ratio of compound concentration showing <20 to <30% hemolysis in mouse RBC to MIC for Candida glabrata ATCC 2001; format: toxicity; conditions: mouse red blood cells (RBC), read-out: Selectivity Index
# [36] = Selectivity index, ratio of compound concentration showing <20 to <30% hemolysis in mouse RBC to MIC for Candida krusei ATCC 6258; format: toxicity; conditions: mouse red blood cells (RBC), read-out: Selectivity Index
# [37] = Selectivity index, ratio of compound concentration showing <20 to <30% hemolysis in mouse RBC to MIC for Candida parapsilosis ATCC 22019; format: toxicity; conditions: mouse red blood cells (RBC), read-out: Selectivity Index
# [38] = Selectivity index, ratio of compound concentration showing <20 to <30% hemolysis in mouse RBC to MIC for Aspergillus flavus ATCC MYA-3631; format: toxicity; conditions: mouse red blood cells (RBC), read-out: Selectivity Index
# [39] = Selectivity index, ratio of compound concentration showing <20 to <30% hemolysis in mouse RBC to MIC for Aspergillus nidulans ATCC 38163; format: toxicity; conditions: mouse red blood cells (RBC), read-out: Selectivity Index
# [40] = Selectivity index, ratio of compound concentration showing <20 to <30% hemolysis in mouse RBC to MIC for Aspergillus terreus ATCC MYA-3633; format: toxicity; conditions: mouse red blood cells (RBC), read-out: Selectivity Index
# [41] = target: Voltage-gated inwardly rectifying potassium channel KCNH2 (Homo sapiens, UniProt Q12809); experiment: Inhibition of [3H]-dofetilide binding to human ERG expressed in HEK293 cell membranes measured after 1 hr by liquid scintillation counting method
# Chain of Voltage-gated inwardly rectifying potassium channel KCNH2 (Q12809 whole entry): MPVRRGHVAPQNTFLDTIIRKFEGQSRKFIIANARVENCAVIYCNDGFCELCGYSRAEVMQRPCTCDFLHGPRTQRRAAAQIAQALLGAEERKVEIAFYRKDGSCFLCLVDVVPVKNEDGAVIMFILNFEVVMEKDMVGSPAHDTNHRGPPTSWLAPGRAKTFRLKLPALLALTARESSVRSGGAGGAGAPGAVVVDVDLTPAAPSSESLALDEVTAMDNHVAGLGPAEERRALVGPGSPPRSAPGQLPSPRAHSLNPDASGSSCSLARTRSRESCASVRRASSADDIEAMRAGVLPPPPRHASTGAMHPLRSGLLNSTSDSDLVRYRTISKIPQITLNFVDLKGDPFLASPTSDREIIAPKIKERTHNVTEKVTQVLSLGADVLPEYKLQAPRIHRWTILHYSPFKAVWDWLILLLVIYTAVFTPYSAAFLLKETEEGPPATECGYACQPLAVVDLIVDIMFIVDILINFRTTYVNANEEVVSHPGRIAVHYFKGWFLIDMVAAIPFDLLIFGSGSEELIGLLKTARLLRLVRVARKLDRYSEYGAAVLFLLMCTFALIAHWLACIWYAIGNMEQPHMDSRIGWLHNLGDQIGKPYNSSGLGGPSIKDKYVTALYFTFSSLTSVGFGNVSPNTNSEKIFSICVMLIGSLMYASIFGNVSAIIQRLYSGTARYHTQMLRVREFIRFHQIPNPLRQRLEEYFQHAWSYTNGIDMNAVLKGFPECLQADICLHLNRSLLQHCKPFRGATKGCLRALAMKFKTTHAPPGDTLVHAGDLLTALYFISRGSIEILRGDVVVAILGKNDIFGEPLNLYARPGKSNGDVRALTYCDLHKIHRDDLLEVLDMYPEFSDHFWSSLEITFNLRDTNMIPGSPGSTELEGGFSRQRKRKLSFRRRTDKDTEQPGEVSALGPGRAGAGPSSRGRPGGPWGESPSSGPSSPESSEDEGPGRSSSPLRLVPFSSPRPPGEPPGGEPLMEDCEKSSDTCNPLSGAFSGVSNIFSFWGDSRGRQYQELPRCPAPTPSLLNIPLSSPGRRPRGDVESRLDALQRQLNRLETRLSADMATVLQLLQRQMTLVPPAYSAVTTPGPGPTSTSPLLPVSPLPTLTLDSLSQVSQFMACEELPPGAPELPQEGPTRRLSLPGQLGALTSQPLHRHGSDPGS
smiles,measurement,setting,value
COc1ccc(N/N=C/c2ccc(-c3ccc(/C=N/Nc4ccc(OC)cc4)cc3)cc2)cc1,Activity,Listeria monocytogenes,inactive
same,Activity,Staphylococcus aureus,inactive
same,Activity,Enterococcus,inactive
same,MIC,Candida albicans [1],7.8 µg/mL
same,MIC,Candida albicans [2],3.9 µg/mL
same,MIC,Candida albicans [3],7.8 µg/mL
same,MIC,Candida albicans [4],7.8 µg/mL
same,MIC,Candida albicans [5],3.9 µg/mL
same,MIC,Candida albicans [6],15.6 µg/mL
same,MIC,Candida albicans [7],7.8 µg/mL
same,MIC,Nakaseomyces glabratus,7.8 µg/mL
same,MIC,Pichia kudriavzevii,7.8 µg/mL
same,MIC,Candida parapsilosis,15.6 µg/mL
same,MIC,Aspergillus flavus,> 31.3 µg/mL
same,MIC,Aspergillus nidulans,7.8 µg/mL
same,MIC,Aspergillus terreus,> 31.3 µg/mL
same,CC50,A549,> 31 µg/mL
same,CC50,BEAS-2B,16.4 µg/mL
same,selectivity ratio,[8],4
same,selectivity ratio,[9],8
same,selectivity ratio,[10],4
same,selectivity ratio,[11],4
same,selectivity ratio,[12],8
same,selectivity ratio,[13],2
same,selectivity ratio,[14],4
same,selectivity ratio,[15],4
same,selectivity ratio,[16],4
same,selectivity ratio,[17],2
same,selectivity ratio,[18],1
same,selectivity ratio,[19],4
same,selectivity ratio,[20],1
same,"hemolysis at 1 h, […]",[21],1.2%
same,"hemolysis at 1 h, 15.6 ug/ml",[22]; at 15.6 µg/mL,6.7%
same,"hemolysis at 1 h, 0.975 ug/ml",[22],1.6%
same,"hemolysis at 1 h, 1.95 ug/ml",[23],1.9%
same,"hemolysis at 1 h, 3.9 ug/ml",[24],2.8%
same,"hemolysis at 1 h, 7.8 ug/ml",[25],4.2%
same,"hemolysis at 1 h, 31.3 ug/ml",[26],12.6%
same,"hemolysis at 1 h, 62.5 ug/ml",[27],22.7%
same,selectivity ratio,[28],1 to 32
same,selectivity ratio,[29],1 to 32
same,selectivity ratio,[30],1 to 32
same,selectivity ratio,[31],1 to 32
same,selectivity ratio,[32],1 to 32
same,selectivity ratio,[33],1 to 32
same,selectivity ratio,[34],1 to 32
same,selectivity ratio,[35],1 to 32
same,selectivity ratio,[36],1 to 32
same,selectivity ratio,[37],1 to 32
same,selectivity ratio,[38],1 to 32
same,selectivity ratio,[39],1 to 32
same,selectivity ratio,[40],1 to 32
same,IC50,[41],> 30 µM
